Data reported in ChEMBL document CHEMBL1201862, “PubChem BioAssay data set” (2004).
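Assay format: 96-well plates, 48-hour exposure. GI50: concentration for 50% inhibition of growth.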 Active and inactive are the calls of the source. Cut-off read from the data, not from the text of the source: active = GI50 up to about 1.1 µM and inactive = higher.

Assays:
Assay in all cases: NCI-60 cell line screen, 48 h
NCI-H522 = test system: NCI-H522
KM12 = test system: KM12
HCT-116 = test system: HCT-116
COLO 205 = test system: COLO 205
K562 = test system: K562
SK-MEL-5 = test system: SK-MEL-5
M14 = test system: M14
T47D = test system: T47D
RXF 393 = test system: RXF 393
U-251 = test system: U-251
TK-10 = test system: TK-10
OVCAR-8 = test system: OVCAR-8
A549 = test system: A549
LOX IMVI = test system: LOX IMVI
Malme-3M = test system: Malme-3M
SK-MEL-28 = test system: SK-MEL-28
MCF7 = test system: MCF7
RPMI-8226 = test system: RPMI-8226
UO-31 = test system: UO-31

Row | SMILES | GI50 (NCI-H522) | GI50 (KM12) | GI50 (HCT-116) | GI50 (COLO 205) | GI50 (K562) | GI50 (SK-MEL-5) | GI50 (M14) | GI50 (T47D) | GI50 (RXF 393) | GI50 (U-251) | GI50 (TK-10) | GI50 (OVCAR-8) | GI50 (A549) | GI50 (LOX IMVI) | GI50 (Malme-3M) | GI50 (SK-MEL-28) | GI50 (MCF7) | GI50 (RPMI-8226) | GI50 (UO-31)
1 | c1ccc2c(c1)c1c3n2-c2cc(on2)C3CCC1 (stereo not drawn) | > 100 µM (inactive) | > 100 µM (inactive) | > 100 µM (inactive) | 98.4 µM (inactive) | > 100 µM (inactive) | > 100 µM (inactive) | > 100 µM (inactive) | > 100 µM (inactive) | > 100 µM (inactive) | > 100 µM (inactive) | > 100 µM (inactive) | > 100 µM (inactive) | > 100 µM (inactive) | > 100 µM (inactive) | > 100 µM (inactive) | > 100 µM (inactive) | > 100 µM (inactive) | > 100 µM (inactive) | > 100 µM (inactive)
2 | Nc1nc(Nc2ccccc2)sc1C(=O)c1cccs1 | 11 µM (inactive) | 4.19 µM (inactive) | 4.06 µM (inactive) | 7.06 µM (inactive) | 9.86 µM (inactive) | 4.08 µM (inactive) | 21.1 µM (inactive) | 21.2 µM (inactive) | 5.93 µM (inactive) | 15.3 µM (inactive) | 16.4 µM (inactive) | 21.1 µM (inactive) | 14.2 µM (inactive) | 11.2 µM (inactive) | 22.1 µM (inactive) | 25.4 µM (inactive) | 8.13 µM (inactive) | 12.8 µM (inactive) | 11.5 µM (inactive)
3 | CC1(C)CCCC2OC2CCC(C)(C)C1=O (stereo not drawn) | > 100 µM (inactive) | > 100 µM (inactive) | > 100 µM (inactive) | > 100 µM (inactive) | > 100 µM (inactive) | > 100 µM (inactive) | > 100 µM (inactive) | > 100 µM (inactive) | > 100 µM (inactive) | > 100 µM (inactive) | > 100 µM (inactive) | > 100 µM (inactive) | > 100 µM (inactive) | > 100 µM (inactive) | > 100 µM (inactive) | > 100 µM (inactive) | > 100 µM (inactive) | > 100 µM (inactive) | > 100 µM (inactive)
4 | c1ccc(/N=C(\N2CCOCC2)N(CCN2CCOCC2)c2ccccc2)cc1 | > 100 µM (inactive) | > 100 µM (inactive) | 98.2 µM (inactive) | > 100 µM (inactive) | > 100 µM (inactive) | > 100 µM (inactive) | > 100 µM (inactive) | > 100 µM (inactive) | > 100 µM (inactive) | > 100 µM (inactive) | > 100 µM (inactive) | > 100 µM (inactive) | > 100 µM (inactive) | > 100 µM (inactive) | > 100 µM (inactive) | > 100 µM (inactive) | > 100 µM (inactive) | > 100 µM (inactive) | 45.2 µM (inactive)
5 | CC(=O)Oc1ccc2c3c1[C@@H]1O[C@@H]1c1cccc(c1-3)[C@@H]1O[C@H]21 | 1.47 µM (inactive) | 2.05 µM (inactive) | 1.66 µM (inactive) | 1.99 µM (inactive) |  | 1.61 µM (inactive) | 1.72 µM (inactive) | 2.14 µM (inactive) | 1.36 µM (inactive) | 2.12 µM (inactive) | 2.08 µM (inactive) | 1.54 µM (inactive) | 2.32 µM (inactive) | 0.962 µM (active) | 1.86 µM (inactive) | 1.96 µM (inactive) | 2.55 µM (inactive) | 1.37 µM (inactive) | 1.52 µM (inactive)
6 | O=C(NC(Cc1c[nH]cn1)C(=O)N1CCCC1)C1CCCC1 (stereo not drawn) | > 100 µM (inactive) | > 100 µM (inactive) | > 100 µM (inactive) | > 100 µM (inactive) | > 100 µM (inactive) | > 100 µM (inactive) | > 100 µM (inactive) | > 10 µM (inactive) | > 100 µM (inactive) | > 100 µM (inactive) | > 100 µM (inactive) | > 100 µM (inactive) | > 100 µM (inactive) | > 100 µM (inactive) | > 100 µM (inactive) | > 100 µM (inactive) | > 100 µM (inactive) | > 100 µM (inactive) | > 100 µM (inactive)
7 | C=C(CCC/C(C)=C/C=C/[C@]1(C)CCCc2ccoc21)CC(=O)O | > 100 µM (inactive) | > 100 µM (inactive) | 60 µM (inactive) | > 100 µM (inactive) | 84.3 µM (inactive) | > 100 µM (inactive) | > 100 µM (inactive) | > 100 µM (inactive) | > 100 µM (inactive) | 68.4 µM (inactive) | > 100 µM (inactive) | > 100 µM (inactive) | > 100 µM (inactive) | > 100 µM (inactive) | > 100 µM (inactive) | > 100 µM (inactive) | 82.6 µM (inactive) | 54.2 µM (inactive) | > 100 µM (inactive)
8 | c1ccc(CC(Nc2cccnc2)c2ccccc2)cc1 (stereo not drawn) | 22.4 µM (inactive) | 24.2 µM (inactive) | 15.5 µM (inactive) | 19.8 µM (inactive) | 17.5 µM (inactive) | 15.7 µM (inactive) | 17.9 µM (inactive) | 28.1 µM (inactive) | 18.6 µM (inactive) | 19.5 µM (inactive) | 32.2 µM (inactive) | 28.2 µM (inactive) | 25.6 µM (inactive) | 16.2 µM (inactive) | 29 µM (inactive) | 31 µM (inactive) | 28.9 µM (inactive) | 17 µM (inactive) | 19.7 µM (inactive)
9 | COC(=O)c1c(C)cccc1/C=C1\Cc2ccc(C)c(C)c2C1=O | 78.9 µM (inactive) | > 100 µM (inactive) | > 100 µM (inactive) |  | 8.32 µM (inactive) | > 100 µM (inactive) | 52.4 µM (inactive) | 76.7 µM (inactive) | 86.5 µM (inactive) | 48.9 µM (inactive) | > 100 µM (inactive) | > 100 µM (inactive) | > 100 µM (inactive) | > 100 µM (inactive) | > 100 µM (inactive) | > 100 µM (inactive) | > 100 µM (inactive) | 56.2 µM (inactive) | 28.8 µM (inactive)
10 | CNc1ncnc2c1cnn2Cc1cn(CCCCO)nn1 | > 100 µM (inactive) | > 100 µM (inactive) | > 100 µM (inactive) | > 100 µM (inactive) | > 100 µM (inactive) | > 100 µM (inactive) | > 100 µM (inactive) | > 100 µM (inactive) | > 100 µM (inactive) | > 100 µM (inactive) | > 100 µM (inactive) | > 100 µM (inactive) | > 100 µM (inactive) | > 100 µM (inactive) | > 100 µM (inactive) | > 100 µM (inactive) | > 100 µM (inactive) | > 100 µM (inactive) | > 100 µM (inactive)
11 | O=C(O)c1ccc(Nc2nc3cc(C(F)(F)F)ccc3nc2-c2ccccc2)cc1 | 16.3 µM (inactive) | 13.2 µM (inactive) | 22.8 µM (inactive) | 17.5 µM (inactive) | 16.8 µM (inactive) | 21 µM (inactive) |  | 7.26 µM (inactive) | 24 µM (inactive) | 14.9 µM (inactive) | 15.2 µM (inactive) | 27.9 µM (inactive) | 16.3 µM (inactive) | 15.2 µM (inactive) | 23.7 µM (inactive) | 28.6 µM (inactive) | > 10 µM (inactive) | 16.4 µM (inactive) | 17.1 µM (inactive)
12 | Cc1ccc(S(=O)(=O)Nc2ccccc2C(=O)c2ccc(C)c(C)c2)cc1 | 39.9 µM (inactive) | 63.4 µM (inactive) | > 100 µM (inactive) | > 100 µM (inactive) |  | 35 µM (inactive) | > 100 µM (inactive) | 71.1 µM (inactive) | > 100 µM (inactive) | 85.1 µM (inactive) | > 100 µM (inactive) | > 100 µM (inactive) | > 100 µM (inactive) | > 100 µM (inactive) | 59 µM (inactive) | > 100 µM (inactive) | 52.7 µM (inactive) | 42.9 µM (inactive) | > 100 µM (inactive)
13 | O=C(/N=C1/NCC(CN2CCN(c3ccccc3)CC2)O1)Nc1ccccc1 (stereo not drawn) | > 100 µM (inactive) | > 100 µM (inactive) | > 100 µM (inactive) | > 100 µM (inactive) | > 100 µM (inactive) | > 100 µM (inactive) | > 100 µM (inactive) | > 100 µM (inactive) | > 100 µM (inactive) | > 100 µM (inactive) | > 100 µM (inactive) |  | > 100 µM (inactive) | > 100 µM (inactive) | > 100 µM (inactive) | > 100 µM (inactive) | > 100 µM (inactive) | > 100 µM (inactive) | > 100 µM (inactive)
14 | Cn1c(=O)c2c(no[n+]2[O-])c2ccccc21 | 13.6 µM (inactive) | 12.4 µM (inactive) | 12.9 µM (inactive) | 17.7 µM (inactive) | 14.3 µM (inactive) | 12.4 µM (inactive) | 12.4 µM (inactive) | 21.6 µM (inactive) | 19.9 µM (inactive) | 15.8 µM (inactive) | 27.8 µM (inactive) | 12.7 µM (inactive) | 23.3 µM (inactive) | 10.9 µM (inactive) | 14.2 µM (inactive) |  | 24.7 µM (inactive) | 22.2 µM (inactive) | 24.3 µM (inactive)
15 | COc1ccc2c3c(c(=O)n(C)c2c1OC)C=CC(C)(C)O3 | 34.5 µM (inactive) | 21.6 µM (inactive) | 29.9 µM (inactive) | 19.7 µM (inactive) |  | 13.3 µM (inactive) | 48.3 µM (inactive) | 25.8 µM (inactive) | 26.5 µM (inactive) | 30.6 µM (inactive) | 28.8 µM (inactive) | 23.9 µM (inactive) | 44.7 µM (inactive) | 33.7 µM (inactive) | 50.4 µM (inactive) | 41.9 µM (inactive) | 36.8 µM (inactive) | 10 µM (inactive) | 20.9 µM (inactive)
